Literature values as cited in patent US20240261224A1, “FORMULATION OF A PAN-JAK INHIBITOR” (KINASET THERAPEUTICS, INC., priority 2022, published 2024).
Read-outs that look alike come from different tables or passages of the source. Marks after values point to notes of the source that are not given here.

Columns and labels:
[1] = system: fractional exhaled nitric oxide (FeNO); conditions: cited from earlier work
[2] = marketed DPI; cited from earlier work

Compound	Mean placebo-corrected FeNO reduction ([1]; 1.0 mg QD, 1 capsule per dose, an increase in FeNO was observed) [%*]	Mean placebo-corrected FeNO reduction ([1]; 4.0 mg QD, 4 capsules per dose) [%]	Mean placebo-corrected FeNO reduction ([1]; 15.0 mg BID, 30 capsules per dose) [%]	Mean placebo-corrected FeNO reduction ([1]; 15.0 mg QD, 15 capsules per dose) [%]	MMAD (μm) [2]
CN(CCC#N)C1CCN(C(=O)Cn2cc(NC(=O)c3cnn4cccnc34)c(-c3cc(Cl)ccc3OC(F)F)n2)CC1 [GDC-0214]	0.4	−6.5	−42	−23	–
CCC(=O)O[C@]1(C(=O)SCF)[C@H](C)C[C@H]2[C@@H]3C[C@H](F)C4=CC(=O)C=C[C@]4(C)[C@@]3(F)[C@@H](O)C[C@@]21C [fluticasone propionate]	–	–	–	–	6-7 μm
